According to PMC5068727, “Low-dose oxytocin delivered intranasally with Breath Powered device affects social-cognitive behavior: a randomized four-way crossover trial with nasal cavity dimension assessment” (Translational Psychiatry, 2015):

Legend:
Type in all cases: in vivo, human
[1] = test system: healthy male adults; test: Social cognition task: emotional and trustworthiness ratings of facial images; details: 1 IU IV over 20 min, estimated mean (SE), linear mixed model, SEM
Protocol: Participants completed the social cognition task 40 min after treatment in a magnetic resonance imaging scanner while functional magnetic resonance imaging and physiology data were recorded (results to be reported separately). Participants were presented with visual stimuli through magnetic resonance imaging-compatible goggles (VisualSystem; NordicNeuroLab, Bergen, Norway) using E-Prime 2.0 (Psychology Software Tools, PA, USA) and responded using a grip response collection system (ResponseGrip, NordicNeuroLab).
For the primary emotional expression evaluation outcome measure, participants were presented with 20 male and 20 female faces (as used previously[55]) displaying angry, happy and emotionally ambiguous facial expressions (derived from the Karolinska Directed Emotional Faces database[56]) and 20 images of geometrical shapes (data not presented). Following each presentation, participants were asked either: How angry is this person? (anchors: not angry—very angry) or How happy is this person? (anchors: not happy—very happy). Q2 was always the same: How much would you trust this person? (anchors: not at all—very much). Participants were asked to rank their answer on a visual analog scale from 1 to 5, with location of the cursor on the visual analog scale randomized for each question. Mean ratings for each of the questions were averaged per session within each of the emotional categories, yielding seven behavioral variables (Q1: Happy face—happy, Happy face—angry, ambiguous face—happy, ambiguous face—angry, angry face—happy, angry face—angry; Q2: Trust). These stimuli and questions were chosen to assess three levels of emotion perception; ambiguous, non-ambiguous with corresponding cues and ratings (for example, angry ratings of angry faces) and non-ambiguous with conflicting cues and ratings (for example, angry ratings of happy faces).
(§1) Analysis was conducted using IBM SPSS Statistics version 22 (IBM, Armonk, NY, USA) to explore pharmacokinetics and examine the impact of treatment on outcome measures. A linear mixed-model (LMM) approach was adopted[58] for the analysis of emotional expression evaluation, pharmacokinetics, state anxiety and trustworthiness. In contrast to a repeated-measures analysis of variance approach, LMM allows for the inclusion of participants in the analysis even if data are missing for some of the treatment conditions. All the models were fitted using an unstructured matrix. For any significant main effects (that is, P<0.05), post hoc tests were performed with the adjustment of critical P-values to correct for multiple comparisons using a 5% false discovery rate.[59] Experimental treatment was both a fixed and repeated effect in the LMM testing the impact of treatment on emotion and trustworthiness ratings. To investigate the impact of treatment on anxiety and blood plasma concentration of OT, AVP and cortisol, an LMM was fitted with three fixed factors (treatment, time, treatment × time) and one repeated factor (treatment).

[2] = Oxytocin blood plasma concentration (ELISA); details: 1 IU IV over 20 min
Protocol: (§2) Blood samples were collected to assess peripheral levels of OT, AVP and cortisol at baseline and five time points after the completion of the 20-min IV administration (0, 10, 30, 60 and 120 mins) throughout the session. Up to two punctures with catheter placement were made to collect these blood samples, which were centrifuged at 4 °C within 5 min of blood draw with plasma frozen at −80 °C. Enzyme-linked immunosorbent assay using commercial kits (Enzo Life Sciences, Farmingdale, NY, USA) was performed using standard techniques (including sample extraction[57]).
as §1, with “Experimental treatment was both a fixed and repeated effect in the LMM testing the impact of treatment on emotion and trustworthiness ratings. To investigate the impact of treatment on anxiety and blood plasma concentration of OT, AVP and cortisol, an LMM was fitted with three fixed factors (treatment, time, treatment × time) and one repeated factor (treatment).” left out

[3] = test system: cortisol; test: Cortisol blood plasma concentration (ELISA); details: 1 IU IV, LMM pairwise comparison
Protocol: as §2, §1

[4] = test system: healthy male adults; test: Self-reported adverse events; details: 1 IU IV; 16 healthy males, single dose
Protocol: At various points (−20, 0, 10, 30, 60 and 120 mins relative to start of functional magnetic resonance imaging) throughout testing, participants reported the presence and severity of any adverse effects.

[5] = Open label pilot study of peripheral OT pharmacokinetics; details: 5 participants, 1IU IV in 200ml 0.9% NaCl, 600ml/hour over 20 minutes, 30 to 60 minutes post-administration
Protocol: An open label pilot study comparing the pharmacokinetics of 24IU OPN-OT and 1IU IV-OT was conducted with 5 eligible participants (4 of these participants participated in the main study) to ensure that 1IU IV-OT would equal or exceed the serum exposure following IN-OT treatment. The IV OT (1IU) was mixed in 200ml 0.9% NaCl and administered at an infusion rate of 600ml/hour over 20 minutes. Blood was sampled just before administration (baseline) and at seven timepoints after completion of administration (10, 20, 30, 45, 60, 90, and 120 minutes). […] There was a one-month washout period, at the minimum, between participation in the pilot study and the experimental phase.

In the case of `CC[C@H](C)[C@@H]1NC(=O)[C@H](Cc2ccc(O)cc2)NC(=O)[C@@H](N)CSSC[C@@H](C(=O)N2CCC[C@H]2C(=O)N[C@@H](CC(C)C)C(=O)NCC(N)=O)NC(=O)[C@H](CC(N)=O)NC(=O)[C@H](CCC(N)=O)NC1=O` [IV OT, oxytocin], the “Angry ratings of ambiguous faces” value ([1]; single dose, task 40 min after treatment, visual analog scale 1 to 5, 16 healthy males) is reported as 2.32 (0.18), the Trustworthiness ([1]; collapsed across emotional categories, scale 1 to 5) is reported as 3.16 (0.05) and the “Angry ratings of angry faces” value ([1]; scale 1 to 5) is reported as 3.68 (0.2). For the same compound, the “Angry ratings of happy faces” value ([1]; scale 1 to 5) was 1.24 (0.02), the “Happy ratings of ambiguous faces” value ([1]; scale 1 to 5) was 2.38 (0.14) and the “Happy ratings of happy faces” value ([1]; scale 1 to 5) was 4.31 (0.13). For the same compound, the “Plasma OT concentration compared with placebo” value ([2]; baseline and 0, 10, 30, 60, 120 min, ELISA with extraction, LMM pairwise comparison, P<0.001) was “significantly increased”, the “Plasma OT concentration, simple effect for time” value ([2]; shortly after IV administration compared with all other time points, all P<0.001) was “significantly higher concentrations shortly after IV administration” and the “Cortisol blood plasma concentration compared with 8 IU OPN-OT” value [3] was “but not 8 IU OPN-OT”. The “Cortisol blood plasma concentration compared with 24 IU OPN-OT” value ([3]; P<0.001) was “significantly increased”, the “Cortisol blood plasma concentration compared with placebo” value ([3]; P=0.01) was “significantly increased” and the “Adverse events (for example, brief dizziness)” value [4] was “three”. For the same compound, the “Peripheral (serum) OT levels relative to 24IU OPN-OT” value [5] was “reasonably approximated the levels achieved after 24IU OPN-OT administration”.
